Test results from US6825177B2, “Aryl phosphate derivatives of d4T with potent anti-viral activity” (Parker Hughes Institute, priority 2000, dated 2004).
Like-named read-outs stand apart in the source and are kept apart here.

Tests used:
[1] = Stability of HI-113 and Ala-d4T-MP in whole blood; format: in vitro ADME; conditions: 37° C.; for stability in whole blood: 250 μM HI-113, 100 μM Ala-d4T-MP
Source text: (§1) The HPLC system used for these studies was a Hewlett Packard (Palo Alto, Calif.) series 1100 instrument equipped with a quaternary pump, an autosampler, an automatic electronic degasser, an automatic thermostatic column compartment, a diode array detector and a computer with Chemstation software for data analysis (Chen et al., J. Chromatogr. B., 724, 157 (1999); Chen et al., J. Chromatogr. B., 727, 205 (1999); and Chen et al., J. Liq. Chromatogr., 22, 1771 (1999)). The analytical column used was a Zobax SB-Phenyl (5 μm, Hewlett Packard, Inc.) column attached to a guard column (Hewlett Packard, Inc.). The column was equilibrated prior to data collection. […] The detection wavelength was 268 nm, the peakwidth was less than 0.03 minutes, the response time was 0.5 seconds, and the slit was 4 nm.
(§2) Plasma samples (200 μL) were mixed 1:4 with acetone (800 μL) and vortexed for at least 30 seconds. Following centrifugation, the supernatant was transferred into a clean tube and was dried under nitrogen. A 50 μL solution of 50% methanol in 200 mM HCl was used to reconstitute the extraction residue, and 40 μL was injected into the HPLC.
(§3) The whole blood samples were placed in a 37° C. water bath, while plasma samples were stored at −20° C. At a predetermined time, an aliquot (100 μl) of spiked whole blood or plasma was extracted by adding 400 μl of acetone to induce precipitation of proteins, as described above.

[2] = Pharmacokinetics after oral administration of HI-113; format: in vivo, Balb/c mice
Experimental: Female Balb/c mice (6-8 weeks old) from Taconic (Germantown, N.Y.) were housed in a controlled environment (12-hours of light/12-hours of dark, 22±1° C., 60±10% relative humidity), which is fully accredited by the USDA. All rodents were housed in microisolator cages (Lab Products, Inc., N.J.) containing autoclaved bedding. The mice were allowed free access to autoclaved pellet food and tap water throughout the study. All animal care procedures conformed to the Guide for the Care and Use of Laboratory Animals (National Research Council, National Academy Press, Washington D.C. 1996).
Sampling time points were 0, 2, 5, 10, 15, 30, 45, 60, 120, 240 and 360 minutes after the gavage. […]
Pharmacokinetic modeling and parameter calculations were carried out using the WinNonlin Professional Version 3.0 (Pharsight, Inc., Mountain, Calif.) pharmacokinetics software (Chen et al., Pharm. Res., 16, 1003 (1999); Chen et al., Pharm. Res., 16, 117 (1999); Chen et al., J. Clin. Pharmacol., 39, 1248 (1999); Uckun et al., Clin. Cancer Res., 5, 2954 (1999); and Uckun et al., J. Pharmacol. Exp. Ther., 291, 1301 (1999)). […] The area under the concentration-time curve (AUC) was calculated according to the linear trapezoidal rule between the first sampling time (0 hours) and the last sampling time plus C/k, where C is the concentration of the last sampling and k is the elimination rate constant. […]

[3] = Pharmacokinetics of Ala-d4T-MP and its metabolite after intravenous Ala-d4T-MP; format: in vivo, Balb/c mice
Experimental: (§5) Female Balb/c mice (6-8 weeks old) from Taconic (Germantown, N.Y.) were housed in a controlled environment (12-hours of light/12-hours of dark, 22±1° C., 60±10% relative humidity), which is fully accredited by the USDA. All rodents were housed in microisolator cages (Lab Products, Inc., N.J.) containing autoclaved bedding. The mice were allowed free access to autoclaved pellet food and tap water throughout the study.
Blood samples (˜500 μL) were obtained from the ocular venous plexus by retro-orbital venipuncture at 0, 2, 5, 10, 15, 30, 45, 60, 120, 240 and 360 minutes after intravenous injection. […]
Pharmacokinetic modeling and parameter calculations were carried out using the WinNonlin Professional Version 3.0 (Pharsight, Inc., Mountain, Calif.) pharmacokinetics software (Chen et al., Pharm. Res., 16, 1003 (1999); Chen et al., Pharm. Res., 16, 117 (1999); Chen et al., J. Clin. Pharmacol., 39, 1248 (1999); Uckun et al., Clin. Cancer Res., 5, 2954 (1999); and Uckun et al., J. Pharmacol. Exp. Ther., 291, 1301 (1999)). […] The area under the concentration-time curve (AUC) was calculated according to the linear trapezoidal rule between the first sampling time (0 hours) and the last sampling time plus C/k, where C is the concentration of the last sampling and k is the elimination rate constant. The systemic clearance (CL) was determined by dividing the dose by the AUC. […]

[4] = Stability of HI-113 and Ala-d4T-MP in plasma; format: in vitro ADME; conditions: for stability in plasma: 250 μM HI-113, 100 μM Ala-d4T-MP
Source text: as §1, §2, §3

[5] = Pharmacokinetics of HI-113 and its metabolites after intravenous HI-113
Experimental: as §5
(§6) All collected blood samples were heparinized and centrifuged at 7000×g for 5 minutes to separate the plasma fraction from the whole blood. The plasma samples were then processed immediately using the extraction procedure described above.
An appropriate model was chosen on the basis of the lowest sum of weighted squared residuals, the lowest Schwartz Criterion (SC), the lowest Akaike's Information Criterion (AIC) value, the lowest standard errors of the fitted parameters, and the dispersion of the residuals. The elimination half-life was estimated by linear regression analysis of the terminal phase of the plasma concentration-time profile. […] The systemic clearance (CL) was determined by dividing the dose by the AUC.

[6] = Stability in simulated intestinal fluid; format: in vitro ADME; conditions: 100 μM, 37° C.
Experimental: (§4) The spiked fluids were then placed in a 37° C. water bath. At a predetermined time, 100 μl aliquots of the spiked gastric or intestinal fluid were extracted by adding 400 μl of acetone as discussed above.

[7] = for effect of esterase inhibitor on decomposition of HI-113 in plasma: plasma pre-incubated with inhibitor at 37° C. for 30 minutes, 250 μM HI-113
Experimental: Plasma samples were pre-incubated with the esterase inhibitors paraoxon (final concentration of 0.1 mM), physostigmine (final concentration of 0.1 mM), and EDTA (final concentration of 1M) at 37° C. for 30 minutes. […] The data in Table 1 was the mean percent hydrolysis from two experiments.

[8] = test system: HIV replication in human peripheral blood mononuclear cells (PBMNC); conditions: compared with d4T; cited from earlier work
[9] = Stability of HI-113 in murine liver homogenates; format: in vitro ADME, Balb/c mice; conditions: 100 μM
Experimental: Fresh mouse liver was obtained from Balb/c mice and homogenated in 1×PBS (1:1, W/V) using a Polytron (PT-MR2000) homogenizer (Kinematical AG, Littau, Switzerland). […] At a predetermined time, an aliquot (100 μl) of spiked liver homogenate was extracted by adding 400 μl of acetone to induce precipitation of proteins, as described above.

HIV-2 = conditions: PBMNC; cited from earlier work
[10] = test system: HIV replication in thymidine kinase-deficient T-cells; conditions: compared with d4T; cited from earlier work
[11] = Stability in simulated gastric fluid; format: in vitro ADME; conditions: 100 μM, 37° C.
Experimental: as §4

[12] = test system: zidovudine (ZVD/AZT)-resistant HIV-1 strains; conditions: PBMNC; cited from earlier work
[13] = Pharmacokinetics of d4T after intravenous d4T; format: in vivo, Balb/c mice; conditions: i.v. d4T 40 mg/kg
Experimental: as §5
Blood samples (˜500 μL) were obtained from the ocular venous plexus by retro-orbital venipuncture at 0, 2, 5, 10, 15, 30, 45, 60, 120, 240 and 360 minutes after intravenous injection.
as §6
Pharmacokinetic modeling and parameter calculations were carried out using the WinNonlin Professional Version 3.0 (Pharsight, Inc., Mountain, Calif.) pharmacokinetics software (Chen et al., Pharm. Res., 16, 1003 (1999); Chen et al., Pharm. Res., 16, 117 (1999); Chen et al., J. Clin. Pharmacol., 39, 1248 (1999); Uckun et al., Clin. Cancer Res., 5, 2954 (1999); and Uckun et al., J. Pharmacol. Exp. Ther., 291, 1301 (1999)). An appropriate model was chosen on the basis of the lowest sum of weighted squared residuals, the lowest Schwartz Criterion (SC), the lowest Akaike's Information Criterion (AIC) value, the lowest standard errors of the fitted parameters, and the dispersion of the residuals. The elimination half-life was estimated by linear regression analysis of the terminal phase of the plasma concentration-time profile. The area under the concentration-time curve (AUC) was calculated according to the linear trapezoidal rule between the first sampling time (0 hours) and the last sampling time plus C/k, where C is the concentration of the last sampling and k is the elimination rate constant. The systemic clearance (CL) was determined by dividing the dose by the AUC. The metabolic clearance of the parent drug, the formation clearance of the metabolite, the clearance elimination of the metabolite, and the distribution clearance of the metabolite were estimated by simultaneous fitting of the concentration of parent drug and metabolites as a function of time curve to pharmacokinetic models (see FIGS. 7A & 8A) specified as a system of differential equations (Gabrielsson & Weiner, Phamacokinetic/Phamacodynamic Data Analysis: Concepts and Applications, Swedish Pharmaceutical Press (1997)).

[14] = i.v. HI-113 100 mg/kg, plasma, estimated from composite curve of pooled data
[15] = i.v. HI-113 100 mg/kg, mean ± S.E.M
[16] = plasma, estimated from composite curve of pooled data

## Cc1cn([C@H]2C=C[C@@H](COP(=O)(O)NC(C)C(=O)O)O2)c(=O)[nH]c1=O (stereo partly shown) [Ala-d4T-MP, alaninyl-d4T-monophosphate]
[1]
  stability in whole blood: stable in both whole blood and plasma for 1 day
[2]; after oral administration of HI-113
  estimated bioavailability of the metabolite: approximately 12%
[3]; i.v. Ala-d4T-MP
  CLm1 as share of the total systemic clearance: 99%
[4]
  stability in plasma: stable in both whole blood and plasma for 1 day
[5]; after intravenous HI-113
  fraction of HI-113 converted to the metabolite: 23%
[6]
  stability in intestinal fluid: stable

## O=C(O)CN(CCN(CC(=O)O)CC(=O)O)CC(=O)O [EDTA, reference compound]
[7]
  effect of esterase inhibitor on decomposition of HI-113 in plasma: not affected

## COC(=O)C(C)NP(=O)(OC[C@@H]1C=C[C@H](n2cc(C)c(=O)[nH]c2=O)O1)Oc1ccc(Br)cc1 (stereo partly shown) [HI-113, d4T-5′-[p-bromophenylmethoxyalaninyl phosphate]]
[8]
  potency in inhibiting HIV replication: substantially more potent than d4T
[1]
  stability in whole blood: very unstable
[1]; 250 μM
  time until decomposition was complete in whole blood: ≤ 30 min
[1]; 5 minutes, 250 μM
  HI-113 decomposed in whole blood: 68%
[1]; 10 minutes, 250 μM
  HI-113 decomposed in whole blood: 87%
[1]; 15 minutes, 250 μM
  HI-113 decomposed in whole blood: 92%
[9]
  time within which HI-113 decomposed in liver homogenate: ≤ 30 min
HIV-2
  concentration inhibiting replication of HIV-2: nanomolar concentrations
[2]; oral HI-113 100 mg/kg
  plasma concentration of the parent compound (below the detection limit): < 500 nM
[10]
  potency in inhibiting HIV replication: substantially more potent than d4T
[11]
  stability in gastric fluid: relatively stable in gastric fluid for 8 hours
[4]; 250 μM
  time until decomposition was complete in plasma: ≤ 30 min
[4]
  stability in plasma: very unstable
[4]; after 5 minutes, 250 μM
  HI-113 decomposed following incubation with plasma: over 95%
[5]; [14]
  VSS: 0.8199 L/kg
[5]; [15]
  CL: (174.5 ± 13.2) ml/min/kg
  VSS: (920 ± 127.4) ml/kg
[12]
  concentration inhibiting replication of zidovudine (ZVD/AZT)-resistant HIV-1 strains: nanomolar concentrations
[7]; EDTA (1 mM), 10 min
  percent hydrolysis of HI-113 in plasma: 100%
[7]; EDTA (1 mM), 15 min
  percent hydrolysis of HI-113 in plasma: 100%
[7]; EDTA (1 mM), 30 min
  percent hydrolysis of HI-113 in plasma: 100%
[7]; EDTA (1 mM), 60 min
  percent hydrolysis of HI-113 in plasma: 100%
[7]; EDTA (1 mM), 120 min
  percent hydrolysis of HI-113 in plasma: 100%
[7]; EDTA (1 mM), arylesterase, 5 min
  percent hydrolysis of HI-113 in plasma: 99%
[7]; Paraoxon (0.1 mM), 10 min
  percent hydrolysis of HI-113 in plasma: 2%
[7]; Paraoxon (0.1 mM), 15 min
  percent hydrolysis of HI-113 in plasma: 2%
[7]; Paraoxon (0.1 mM), 30 min
  percent hydrolysis of HI-113 in plasma: 2%
[7]; Paraoxon (0.1 mM), 60 min
  percent hydrolysis of HI-113 in plasma: 3%
[7]; Paraoxon (0.1 mM), 120 min
  percent hydrolysis of HI-113 in plasma: 24%
[7]; Paraoxon (0.1 mM), cholinesterase & carboxylesterase, 5 min
  percent hydrolysis of HI-113 in plasma: 0%
[7]; Physostigmine (0.1 mM), 10 min
  percent hydrolysis of HI-113 in plasma: 65%
[7]; Physostigmine (0.1 mM), 15 min
  percent hydrolysis of HI-113 in plasma: 76%
[7]; Physostigmine (0.1 mM), 30 min
  percent hydrolysis of HI-113 in plasma: 89%
[7]; Physostigmine (0.1 mM), 60 min
  percent hydrolysis of HI-113 in plasma: 100%
[7]; Physostigmine (0.1 mM), 120 min
  percent hydrolysis of HI-113 in plasma: 100%
[7]; Physostigmine (0.1 mM), cholinesterase, 5 min
  percent hydrolysis of HI-113 in plasma: 43%
[7]; no inhibitor, 5 min, 250 μM HI-113, mean of two experiments
  percent hydrolysis of HI-113 in plasma: 95%
[7]; no inhibitor, 10 min
  percent hydrolysis of HI-113 in plasma: 98%
[7]; no inhibitor, 15 min
  percent hydrolysis of HI-113 in plasma: 99%
[7]; no inhibitor, 30 min
  percent hydrolysis of HI-113 in plasma: 100%
[7]; no inhibitor, 60 min
  percent hydrolysis of HI-113 in plasma: 100%
[7]; no inhibitor, 120 min
  percent hydrolysis of HI-113 in plasma: 100%
[6]
  stability in intestinal fluid: not stable
[6]; within 2 hours
  HI-113 decomposed in intestinal fluid: approximately 94%

## Cc1cn([C@H]2C=C[C@@H](CO)O2)c(=O)[nH]c1=O [d4T, 2′,3′-didehydro-2′,3′-dideoxythymidine]
[13]; [16]
  AUC: 12227.1 µM·min
  CL: 15.0 mL/min/kg
  VSS: 0.6578 L/kg
  t1/2: 0.505 h
[13]; mean ± S.E.M
  CL: (15.2 ± 0.7) ml/min/kg
  VSS: (581.8 ± 62.8) ml/kg
  t1/2: (26.6 ± 1.2) min
[3]; female, Balb/c, mouse, in vivo, iv
  formation of d4T from intravenously administered Ala-d4T-MP (fraction converted): 15%
[5]; [14]
  t1/2: 1.913 h

## CCOP(=O)(OCC)Oc1ccc([N+](=O)[O-])cc1 [paraoxon, reference compound]
[7]
  effect of esterase inhibitor on decomposition of HI-113 in plasma: significantly inhibited
